Earlier results as cited in patent publication US6706285B1, “Enteric coated formulation of a benzimidazole derivative and method for preparation thereof” (Hanms Pharm. Co., Ltd., priority 1998, dated 2004).
Read-outs that look alike come from different tables or passages of the source.

half-life (acidic condition at a pH of 4 or less): less than 10 minutes
half-life (at a pH of 11): about 300 days
half-life (neutral condition at a pH of about 7.0): about 14 hours
SMILES: COc1ccc2[nH]c([S+]([O-])Cc3ncc(C)c(OC)c3C)nc2c1 (stereo not drawn) [omeprazole, 5-methoxy-2[[(4-methoxy-3,5-dimethyl-2-pyridinyl)methyl]sulfinyl]-1H-benzimidazole]
